Results reported in patent US9428753B2, “Use of LXR antagonists for treatment of side effects of elevated glucocorticoid levels” (The Governing Council of the University of Toronto, priority 2013, dated 2016).
Entries after “also recorded” stand apart in the source; their conditions may differ.

Biological target: T1, GR (Homo sapiens, UniProt P04150)
T1 sequence (P04150 524-758 limits assumed): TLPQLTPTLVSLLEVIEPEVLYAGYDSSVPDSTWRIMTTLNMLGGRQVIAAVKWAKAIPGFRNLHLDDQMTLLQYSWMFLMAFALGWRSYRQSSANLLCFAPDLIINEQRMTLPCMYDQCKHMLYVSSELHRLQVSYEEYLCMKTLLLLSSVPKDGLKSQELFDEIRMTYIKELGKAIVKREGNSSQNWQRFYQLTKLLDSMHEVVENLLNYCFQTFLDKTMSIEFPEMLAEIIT
Experiment: GAL4-GR / UAS-luc co-transfection reporter assay in HEK293 cells
Assay type: cell-based
Set-up: co-transfecting UAS-reporter and GAL4-LBD of the nuclear receptors LXRα, LXRβ and GR; GAL4 (fusion partner); expressed in transfected cells; host or cells: HEK293 cells; mouse primary hepatocytes
Description: (§1) RLU=relative luciferase units.
as §1
Further experiments were then carried out to determine the inhibitory potencies for the individual LXR isoforms in HEK 293 cells by co-transfecting UAS-reporter and GAL4-LBD of the nuclear receptors LXRα, LXRβ and GR and then treating with 8 different concentrations of GSK2033. To assess suppression of ligand activated receptors, the transfected cells were co-treated with increasing doses of GSK2033, in addition to T09091317 or Dex (dexamethasone) (at EC80 of LXR isoforms and GR, respectively).
A number of experiments were carried out to determine the relative inhibitory potencies of GSK2033, Amgen 54 and DMHCl for the individual LXR isoforms in HEK 293 cells by co-transfecting UAS-reporter and GAL4-LBD of the nuclear receptors LXRα, LXRβ and GR and then treating with 6 different concentrations of GSK2033, Amgen 54 and DMHCl. To assess suppression of ligand activated receptors, the transfected cells were co-treated with increasing doses of GSK2033, Amgen 54 and DMHCl, in addition to T09091317 or Dex (at EC80 of LXR isoforms and GR, respectively).

## Cc1cc(C)c(S(=O)(=O)N(Cc2ccc(-c3cccc(S(C)(=O)=O)c3)cc2)Cc2ccc(C(F)(F)F)o2)c(C)c1 [GSK2033, 2,4,6-trimethyl-N-((3′-(methylsulfonyl)-[1,1′-biphenyl]-4-yl)methyl)-N-((5-(trifluoromethyl)furan-2-yl)methyl)benzenesulfonamide]
Example 1, GAL4-GR activated with 100 nM Dex
  Dex induced GR activity: unaffected; also recorded: did not antagonize
Example 7, 100 nM Dex
  Dex induced GR activity: unaffected; also recorded: did not antagonize
